Read-outs that look alike come from different tables or passages of the source.
How the values were obtained:
D3 DAR [1] = biological target: T1, D3 DAR (Homo sapiens, UniProt P35462); experiment: [3H]-methylspiperone radioligand binding assay; settings: indicated concentrations, FIG. 1B
Method: Compounds were tested for their ability to compete with the orthosteric radioligand [^3H]-methylspiperone for binding to the D3 DAR using HEK cells transiently transfected with the D3 DAR as described in the detailed protocol below presented in Table 5. Cells were cultured in Dulbecco's modified Eagle's Medium (Corning, catalogue no. 10-013) containing 10% FBS, 1,000 units/mL Penicillin, […] Streptomycin, 100 mM sodium pyruvate, 1 μg/mL Gentamicin, and […] G418. All cells were maintained at 37° C. in 5% CO2 and 90% humidity. For radioligand binding assays cells were removed mechanically using calcium-free Earle's balanced salt solution (EBSS). Intact cells were collected by centrifugation and then lysed with 5 mM Tris-HCl and 5 mM MgCl2 at pH 7.4. Homogenates were centrifuged at 30,000×g for 30 minutes. The membranes were re-suspended in EBSS (US Biological, catalogue no. E0249-05) pH 7.4 to a concentration of 16 μg/mL. For competition binding studies, membrane preparations were incubated for 90 minutes at room temperature with various concentrations of compound and a single concentration of [^3H]-methylspiperone (Perkin Elmer, NET856) in a reaction volume of […]. Non-specific binding was determined in the presence of 4 μM (+)-butaclamol (Sigma-Aldrich, catalogue no. D033). Bound ligand was separated from unbound by filtration through GF/C filters using a PerkinElmer cell harvester and quantified on a Top-count (PerkinElmer). Ki values were determined using Cheng-Prusoff equation from observed IC50 values and ligand Kd values from separate saturation experiments.

168 unique GPCRs = experiment: DiscoverX gpcrMAX β-arrestin recruitment assay panel; format: cell-based; settings: 30 μM
Method: Cmp. 1 was tested as both an agonist (FIG. 5A) or an antagonist (FIG. 5B) at a single high concentration (30 μM) on 168 different GPCRs in the DiscoverX gpcrMAX™ β-arrestin recruitment assay panel (FIGS. 5A and 5B). Assay results are presented as the mean percent activation of indicated GPCRs (for n=2 replicates). For a full description of the DiscoverX gpcrMAX™-GPCR assay panel and methods (see: http://www.DiscoverX.com). […] Data were provided by the National Institute of Mental Health (NIMH) Psychoactive Drug Screening Program (PDSP) (University of North Carolina, Chapel Hill, NC). For experimental details including radioligands used and associated Kd values for each individual target, refer to the PDSP website: http://pdsp.med.unc.edu/. While Cmp. […] The 5-HT6 receptor was not present in the functional panels, however, subsequent testing found Cmp.

[2] = tested on: other dopamine receptor subtypes; experiment: DiscoverX β-arrestin assay, other dopamine receptors; format: cell-based; settings: FIG. 1A
Description: For a secondary-screen and selectivity assays, DAR PathHunter®-arrestin GPCR cell lines from DiscoverX (Fremont, CA) were used. In the D2 DAR PathHunter®-arrestin GPCR cell line, the D2 DAR is overexpressed and fused with a small 42-amino acid fragment of β-galactosidase called ProLink™ on a CHO cellular background expressing a fusion protein of β-arrestin and a larger N-terminal deletion mutant of β-galactosidase (“enzyme acceptor”). When the D2 DAR is activated by dopamine, it stimulates binding of β-arrestin to the ProLink-tagged DAR and the two complementary parts of β-galactosidase form a functional enzyme. When substrate (PathHunter™ Detection reagent) is added, β-galactosidase hydrolyzes it and generates a chemiluminescent signal.

D3 DAR [3] = biological target: T1, D3 DAR; experiment: DiscoverX D3 DAR β-arrestin recruitment assay; format: cell-based; set-up: host or cells: CHO
Procedure, shortened: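 CHO cells overexpressing D3 DAR fused to a ProLink β-galactosidase fragment plus a β-arrestin–β-galactosidase deletion mutant fusion. Receptor activation drives β-arrestin recruitment and enzyme complementation. Chemiluminescent read-out after detection substrate is added.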

T1 sequence (P35462 whole entry): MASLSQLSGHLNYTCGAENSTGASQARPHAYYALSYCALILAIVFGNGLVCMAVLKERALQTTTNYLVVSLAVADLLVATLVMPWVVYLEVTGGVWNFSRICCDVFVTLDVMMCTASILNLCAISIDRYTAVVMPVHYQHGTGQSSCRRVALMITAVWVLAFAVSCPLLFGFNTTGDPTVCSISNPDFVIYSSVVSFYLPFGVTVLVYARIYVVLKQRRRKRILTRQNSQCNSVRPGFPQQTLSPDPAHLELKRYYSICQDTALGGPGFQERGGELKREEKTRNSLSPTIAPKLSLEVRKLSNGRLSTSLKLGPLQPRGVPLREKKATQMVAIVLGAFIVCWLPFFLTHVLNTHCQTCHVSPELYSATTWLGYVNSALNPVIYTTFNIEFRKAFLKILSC

inhibition of [3H]-methylspiperone binding to the D3 DAR (D3 DAR [1]): lacks ability to inhibit the binding | functional activity at the H1 receptor in the functional panels (168 unique GPCRs; H1 receptor): no functional activity | IC50 (D3 DAR [3]; DiscoverX β-arrestin assay, FIG. 1A, 2A, read-out: IC50, inhibition of dopamine-stimulated β-arrestin recruitment to the D3 DAR): ~16 µM | IC50 (D3 DAR [3]; EC80 concentration of DA (30 nM), read-out: D3 DAR IC50): 10 to 50 µM | Emax (D3 DAR [3]; Imax=maximum inhibition, EC80 DA (30 nM)): 80 to 100%
SMILES: Cc1ccc(NS(=O)(=O)c2c(C)[nH]c(C)c2C(=O)N2CCCC2)cc1Cl [Cmp. 1]
agonist activity in gpcrMAX panel (168 unique GPCRs; agonist mode): lacked agonist activity at all 168 GPCRs | antagonist activity in gpcrMAX panel (168 unique GPCRs; antagonist mode): the only GPCR that was antagonized was the D3 DAR | activity at other dopamine receptor subtypes [2]: no activity
